The results in this text go back to patent US20230149507A1, “TREATMENT OF ALT CANCERS” (INSTITUTO DE MEDICINA MOLECULAR JOÃO LOBO ANTUNES, priority 2019, published 2023).

Holding throughout (type): cell-based, human
For assay [1], the system named is U-2 OS cells. Description: APB frequency and APB telomere intensity in cells overexpressing FANCM variants. Particulars: overexpression. From the text:
(a) Western immunoblotting of stable wild-type FANCM (FANCM+) or FANCM mutant overexpression in U-2 OS cells. […] (b) TRF analysis of U-2 OS cells overexpressing wild-type (FANCM+) or FANCM mutants. Gels were hybridized under native and denatured conditions with radiolabelled telomeric probes to detect the C-strand and G-strand. (c) Tukey boxplots of APB frequency (top panel) and mean APB telomere intensity (bottom panel) in U-2 OS cells overexpressing wild-type (FANCM+) or FANCM mutants. Out of 3 experiments, n=150 cells scored per variant, *p<0.05, **p<0.005, Mann-Whitney test.
(§1) FIG. 23. Defects in ALT phenotype suppression are exacerbated by overexpression of a double-mutant (DM) FANCM, in which both the MM2 domain (FF>AA) and the translocase domain (K117R) of FANCM are mutated. (a) Representative dot blots and quantitation of C-circle assays in U-2 OS cells stably overexpressing wild-type (WT) or FANCM domain mutants (K117R, FF>AA; DM). C-circles were normalized to the mean of empty vector control (EV). Error bars represent mean±SEM from n=3 experiments, *p<0.05, **p<0.005, Student's t-test. (b) Quantitation of APB frequency in U-2 OS cells overexpressing wild-type (WT) or FANCM mutants. Scatterplot bars represent the mean±SEM. Out of three experiments, n=150 cells were scored for each mutant, **p<0.005, Mann-Whitney test. (c) Quantitation of metaphase-TIFs in U-2 OS cells stably overexpressing wild-type (WT) or FANCM mutants. Scatterplot bars represent the mean±SEM. Out of three experiments, n=120 metaphases scored for each mutant, *p<0.05, **p<0.005, Mann-Whitney test. All statistical comparisons are relative to EV control.
(§2) Empty vector and wild-type FANCM (pCMV6-Myc-DDK) constructs were obtained from Origene Technologies. Wild type FANCM (SEQ ID NO: 2) and FANCM mutants (SEQ ID NOs: 19 to 28) were cloned into the pLenti-C-Myc-DDK-IRES-Neo backbone (Origene Technologies) by restriction enzyme subcloning of gene blocks synthesized by Integrated DNA Technologies (IDT). Lentivirus was produced by the Vector and Genome Engineering Facility (Children's Medical Research Institute). For stable overexpression, cells were transduced with lentivirus, allowed to recover for 24 h, and subject to G418 selection. Cells were maintained in G418 to ensure sustained overexpression.
Indirect IF and telomere FISH were performed on both interphase nuclei and metaphase spreads. For interphase IF experiments, cells were grown on coverslips or LabTek chamber slides (Thermo Scientific). Slides were prepared as described in Sobinoff et al., 2017. Cells on coverslips were washed twice with PBS, permeabilized with KCM buffer (120 mM KCl, 20 mM NaCl, 10 mM Tris pH 7.5, 0.1% Triton), washed again with PBST and PBS, then fixed with ice-cold 4% formaldehyde PBS solution at room temperature for 10 min. Coverslips were blocked with antibody-dilution buffer (20 mM Tris-HCl, pH 7.5, 2% (w/v) BSA, 0.2% (v/v) fish gelatin, 150 mM NaCl, 0.1% (v/v) Triton X-100 and 0.1% (w/v) sodium azide) and 0.1 mg/ml RNaseA for 30 min at 37° C. Cells were incubated with primary antibodies (Supplementary Table 1) for 1 h at 37° C. or 2 h at room temperature, then incubated with 1:1,000 dilution of appropriate Alexa Fluor conjugated secondary antibodies (Thermo Scientific). Coverslips were rinsed with PBS then fixed with 4% (v/v) formaldehyde at room temperature prior to telomere FISH. Coverslips were subjected to a graded ethanol series (75% for 2 min, 85% for 2 min, and 100% for 2 min) and allowed to air-dry. […]

The test system of assay [2] is U-2 OS cells. Description: C-circle assay in cells overexpressing FANCM variants. The note with it: stable overexpression, compared to vector control.
Source text: (§3) (a) Schematic of FANCM domain interactions, mutations or deletions. For clarity, domains have been color coded by functional role (bottom panel). (b) Quantitation of metaphase-TIFs in U-2 OS cells stably overexpressing wild-type (FANCM+) or FANCM mutants. Scatterplot bars represent the mean±SEM. Out of 3 experiments, n≥110 metaphases scored for each mutant, *p<0.05, **p<0.005, Mann-Whitney test. (c) Quantitation of fragile telomeres in U-2 OS cells stably overexpressing wild-type (FANCM+) or FANCM mutants. Scatterplot bars represent the mean±SEM. Out of 3 experiments, n>100 metaphases scored for each mutant, *p<0.05, **p<0.005, Mann-Whitney test. (d) Representative dot blots and quantitation of C-circle assays in U-2 OS cells stably overexpressing wild-type (FANCM+) or FANCM domain mutants. C-circles were normalized to the mean of vector control. Error bars represent mean±SEM from n=3 experiments, *p<0.05, **p<0.005, Student's t-test. (e) Single molecule analysis of telomeric extension events (top panel) and length of extension events (bottom panel) in U-2 OS cells stably overexpressing wild-type (FANCM+) or FANCM domain mutants. Error bars represent mean±SEM of n≥350 fibers out of 3 experiments, *p<0.05, **p<0.005, Student's t-test.
as §1, §2
C-circles were amplified with Phi29 polymerase using dATP, dTTP and dGTP overnight. Products were dot blotted onto Biodyne B membranes (Pall) and pre-hybridised in PerfectHyb Plus (Sigma) for at least 30 min. Radiolabeled telomeric C-probe was then added and blots were hybridized overnight at 37° C. (Henson et al., 2009). Blots were washed with 0.5×SSC, 0.1% SDS three times for 5 min each then exposed to phosphor screen. Imaging was performed on the Typhoon FLA 7000 system (GE Healthcare) with a PMT of 750 V.

For assay [3], the system named is U-2 OS cells. In words: Metaphase-TIFs in cells overexpressing FANCM variants. Particulars: stable overexpression.
Source text: as §3, §1, §2
(§4) Indirect IF and telomere FISH were performed on both interphase nuclei and metaphase spreads. For interphase IF experiments, cells were grown on coverslips or LabTek chamber slides (Thermo Scientific). Slides were prepared as described in Sobinoff et al., 2017. Cells on coverslips were washed twice with PBS, permeabilized with KCM buffer (120 mM KCl, 20 mM NaCl, 10 mM Tris pH 7.5, 0.1% Triton), washed again with PBST and PBS, then fixed with ice-cold 4% formaldehyde PBS solution at room temperature for 10 min. […]

Assay [4] has as its system U-2 OS cells. In words: Fragile telomeres in cells overexpressing FANCM variants. The note with it: stable overexpression.
Source text: as §3, §2
as §4, with “min. Coverslips were blocked with antibody-dilution buffer (20 mM Tris-HCl, pH 7.5, 2% (w/v) BSA, 0.2% (v/v) fish gelatin, 150 mM NaCl, 0.1% (v/v) Triton X-100 and 0.1% (w/v) sodium azide) and 0.1 mg/ml RNaseA for 30 min at 37° C.” for “min.”

Turning to “DM: double mutant FANCM with both the K117R substitution and the FF>AA double substitution (SEQ ID NO:35)”, in the assay with U-2 OS cells [1], the “number of APBs” value is “greater increase in the number of APBs”. Further, the C-circle levels result in the assay on U-2 OS cells [2] is “significantly greater increase in C-circles”. Further, in the assay with U-2 OS cells [3], the “telomere dysfunction (metaphase-TIFs)” value was “enhanced telomere dysfunction”.
“ERCC4: FANCM ERCC4 domain mutant (SEQ ID NO: 27), deletion at amino acid residues 1815-1922”: the C-circle levels entry with U-2 OS cells [2] is “did not cause a change in C-circle levels”.
For “HhH: FANCM HhH domain mutant (SEQ ID NO: 28), deletion at amino acid residues 1971-2048”, the C-circle levels result in the assay with U-2 OS cells [2] is listed as “did not cause a change in C-circle levels”.
As to “MID: FANCM MID domain mutant (SEQ ID NO: 21) substituted at V749G/H751G”, the “number of fragile telomeres (telomere fragility)” value in the assay on U-2 OS cells [4] was “significantly increased”. Besides, the “telomere dysfunction (metaphase-TIFs)” value in the assay with U-2 OS cells [3] was “significantly increased”.
As for “wild-type FANCM: wild type FANCM (SEQ ID NO: 2) stably overexpressed by lentivirus”, the “number of fragile telomeres (telomere fragility)” value in the assay with U-2 OS cells [4] is “significant decrease”. Also, the C-circle levels entry with U-2 OS cells [2] is “significant decrease in C-circle generation”. Also, in the assay on U-2 OS cells [3], the “telomere dysfunction (metaphase-TIFs)” value is reported as “significant decrease”.
